Source: patent US11952348B1, “4,5-bis(4-bromophenyl)-1-hexyl-2-(4-hydroxy-3-dimethoxyphenyl)-1H-imidazole as an antimicrobial compound” (KING FAISAL UNIVERSITY, priority 2023, dated 2024)

What was measured:
Format in all cases: cell-based
Settings in all cases: after 10, 20, 40 and 60 minutes at all dilutions 1:100, 1:200, 1:400, 1:800
Staphylococcus aureus = assay: Antimicrobial screening by agar dilution, Staphylococcus aureus
Description: (§1) The antimicrobial properties of the 4,5-bis(4-bromophenyl)-1-hexyl-2-(4-hydroxy-3-dimethoxyphenyl)-1H-imidazole was studied by the method of agar dilution. Test solutions of each compound was prepared in concentration of 1% using dimethylformamide as a solvent then they were diluted in physiological solution to obtain the final experimental dilutions 1: 100, 1:200, 1:400, 1:800. The effect of these substances were compared with furacillin in a controlled study. The testing microbes used were gram positive bacteria Staphylococcus aureus, gram negative bacteria Pseudomonas aeruginosa and Escherichia coli and Candida albicans fungi were taken. The experiments used for this survey were meat-pentonlu agar (EPA) for cultivation of bacteria and Saburo environment for fungi. Each experiment used 1 ml of test solution on each plate 500 min. Add 2 drops of emulsified with microbes feel. All experimental samples were taken from the agar after 10, 20, 40, 60 minutes in the environment on the basis of Patrk planted. Bacteria were cultivated at a temperature of 37° C. for 1 day and the mushroom was kept in a thermostat for […] at a temperature of 28° C. Then results were checked.

Escherichia coli = assay: Antimicrobial screening by agar dilution, Escherichia coli
Description: as §1

Candida albicans = assay: Antimicrobial (antifungal) screening by agar dilution, Candida albicans
Description: as §1

Pseudomonas aeruginosa = assay: Antimicrobial screening by agar dilution, Pseudomonas aeruginosa
Description: as §1

Measured: inhibition activity (summary in words)

CCCCCCn1c(-c2ccc(O)c(OC)c2)nc(-c2ccc(Br)cc2)c1-c1ccc(Br)cc1 [4,5-bis(4-bromophenyl)-1-hexyl-2-(4-hydroxy-3-dimethoxyphenyl)-1H-imidazole]
highest inhibition activity: all assays above
